Paper PMC6112376, “Comprehensive Analyses and Prioritization of Tox21 10K Chemicals Affecting Mitochondrial Function by in-Depth Mechanistic Studies” (Environmental Health Perspectives, 2018)
Like-named read-outs stand apart in the source and are kept apart here.

Assays:
HepG2 cells [1] = conditions: for IC50: read-out: MMP assays IC50 (µM) HepG2
HepG2 cells [2] = conditions: cited from earlier work
rat primary hepatocytes = assay: MMP assay in rat primary hepatocytes; conditions: for IC50: read-out: MMP assays IC50 (µM) Rat Hepatocytes
[3] = system: isolated rat liver mitochondria; assay: Oxygen consumption, Clark-type oxygen electrode; assay type: biochemical; conditions: for I-ADP, % of control (O2 consumption rate): glutamate/malate driven state 3 respiration; for I-ADP, % of control (O2 consumption rate) / I-sub, % of control (O2 consumption rate) / II-ADP, % of control (O2 consumption rate) / II-sub, % of control (O2 consumption rate): isolated rat liver mitochondria; for I-sub, % of control (O2 consumption rate): glutamate/malate driven state 4 respiration; for II-ADP, % of control (O2 consumption rate): succinate-driven state 3 respiration; for II-sub, % of control (O2 consumption rate): succinate-driven state 4 respiration
HepG2 cells [4] = assay: cells; conditions: Homo sapiens; for IC50: HepG2, read-out: MMP assays IC50 (µM) HepG2; for Emax: HepG2, read-out: MMP assays efficacy (%) HepG2
[5] = HepG2 cells, single number from one experiment
[6] = rat hepatocytes, mean ± SD of three experiments
[7] = read-out: MMP assays IC50 (µM), qHTS-HepG2
[8] = read-out: MMP assays IC50 (µM) qHTS-HepG2

Row | Compound | MMP assays efficacy (%) HepG2 (HepG2 cells [1]; [5]) | MMP assays efficacy (%) qHTS-HepG2 (HepG2 cells [2]) | MMP assays IC50 (µM) Rat Hepatocytes (rat primary hepatocytes; [6]) | MMP assays efficacy (%) Rat Hepatocytes (rat primary hepatocytes; [6]) | IC50 (HepG2 cells [1]; [5]) [µM] | IC50 (rat primary hepatocytes; [6]) [µM] | IC50 (HepG2 cells [2]; [8]) [µM] | further results
1 | C[C@@H]1C[C@H]2[C@@H]3CCC4=CC(=O)C=C[C@]4(C)[C@@]3(F)[C@@H](O)C[C@]2(C)[C@@]1(O)C(=O)COC(=O)c1cccc(S(=O)(=O)[O-])c1.[Na+] [Dexamethazone metasulfobenzoate sodium] | inactive | inactive | inactive | inactive | – | – | – | MMP assays IC50 (µM) HepG2 (HepG2 cells [1]; [5]): inactive; MMP assays IC50 (µM) qHTS-HepG2 (HepG2 cells [2]): inactive
2 | CCOc1ccc2[nH]cc(C(=O)NCc3ccccc3)c(=O)c2n1 | -92% | -88±7% | – | -80±31% | 15.8 | 24 ± 16.6 | – | IC50 (HepG2 cells [2]; [7]): 14.8 ± 9.66 µM
3 | CCCCCCCC[N+](CCCCCCCC)(CCCCCCCC)CCCCCCCC.[Br-] [tetra-N-Octylammonium bromide] | -92% | -88±6% | inactive | inactive | 0.13 | – | – | –
4 | C[C@H](/C=C/[C@H](C)C(C)(C)O)[C@H]1CC[C@H]2/C(=C/C=C3C[C@@H](O)C[C@H](O)C3)CCC[C@]12C [Paricalcitol] | inactive | -69±16% | inactive | inactive | – | – | – | MMP assays IC50 (µM) HepG2 (HepG2 cells [1]; [5]): inactive; IC50 (HepG2 cells [2]; [7]): 8.91 ± 1.56 µM
5 | CC(=O)c1ccc2ccc3ccccc3c2c1 [Compound 3-Acetylphenanthrene] | -105% | -105±10% | – | -44±5% | 56.2 | 42.2 ± 19.8 | 36.9 ± 13.7 | –
6 | O=C(c1ccccc1)c1cc(Cl)ccc1O | -98% | -85±12% | – | -59±21% | 39.8 | 25.4 ± 21.3 | 29.1 ± 3.36 | –
7 | CCn1c2ccccc2c2cc(N)ccc21.Cl [3-Amino-9-ethylcarbazole hydrochloride] | -38% | -93±11% | – | -53±23% | 14.1 | 56.2 | 35.4 ± 24.5 | –
8 | CC(=O)OCC(=O)[C@@]1(OC(C)=O)[C@@H](C)C[C@H]2[C@@H]3C[C@H](F)C4=CC(=O)C=C[C@]4(C)[C@@]3(F)[C@@H](O)C[C@@]21C [Diflorasone diacetate] | inactive | -50±7% | inactive | inactive | – | – | 28.7 ± 1.87 | MMP assays IC50 (µM) HepG2 (HepG2 cells [1]; [5]): inactive
9 | C#C[C@]1(OC(=O)CCCCCC)CC[C@H]2[C@@H]3CCC4=CC(=O)CC[C@@H]4[C@H]3CC[C@@]21C [Noristerat] | -117% | -87±18% | inactive | inactive | 21.8 | – | – | IC50 (HepG2 cells [2]; [7]): 9.81 ± 1.78 µM
10 | OC1CCCCCCCCCCC1 [Cyclododecanol] | inactive | -66±13% | inactive | inactive | – | – | 48.8 ± 3.84 | MMP assays IC50 (µM) HepG2 (HepG2 cells [1]; [5]): inactive
11 | CC(C)(O)c1ccccc1CC[C@@H](SCC1(CC(=O)O)CC1)c1cccc(/C=C/c2ccc3ccc(Cl)cc3n2)c1 [Montelukast sodium] | – | -72±20% | – | – | – | – | – | MMP assays IC50 (µM) HepG2 (HepG2 cells [1]): inactive; MMP assays efficacy (%) HepG2 (HepG2 cells [1]): inactive; IC50 (rat primary hepatocytes; Rattus norvegicus, Hepatocyte): 24.1 ± 9.54 µM
12 | O=C(O)C(=O)Cc1c[nH]c2ccccc12 [Indole-3-pyruvic acid] | -89% | -85±21% | – | -72±42% | 11.2 | 21.3 ± 17.9 | – | IC50 (HepG2 cells [2]; [7]): 28.9 ± 16.7 µM
13 | Bis(tributyltin)oxide | – | -112±4% | – | – | – | – | 0.09 ± 0.02 | MMP assays efficacy (%) HepG2 (HepG2 cells [1]): -98%; IC50 (HepG2 cells [1]): 0.31 µM; MMP assays IC50 (µM) Rat Hepatocytes (rat primary hepatocytes): inactive
14 | CCCCCCCCCCn1cc[n+](C)c1.O=S(=O)([O-])C(F)(F)F [1-Decyl-3-methylimidazolium trifluoromethanesulfonate] | -99% | -57±16% | – | -125±47% | 7.08 | 12.1 ± 3.97 | 1.67 ± 2.71 | –
15 | CCCCCCCCCCCC[N+](C)(C)Cc1ccccc1.[Br-] [Benzyldodecyldimethylammonium bromide] | – | -97±11% | – | -44±3% | 17.3 | 18.4 ± 1.5 | 11.4 ± 4.34 | –
16 | CCc1cc(SCc2sc(-c3ccc(C(F)(F)F)cc3)nc2CN2CCN(c3ccc(OC)cc3)CC2)ccc1OCC(=O)O | -105% | -128±5% | – | -116±28% | 31.6 | 23.1 ± 15.6 | 25.3 ± 5.81 | –
17 | COC(=O)C1=C(C)NC(C)=C(C(=O)O[C@@H]2CCCN(Cc3ccccc3)C2)[C@@H]1c1cccc([N+](=O)[O-])c1.Cl (racemic) [rac Benidipine hydrochloride] | -89% | -93±18% | inactive | inactive | 30.8 | – | – | IC50 (HepG2 cells [2]; [7]): 15 ± 3.18 µM
18 | O=C(c1ccc(O)c(O)c1)c1ccc(O)cc1O [2,3',4,4'-Tetrahydroxybenzophenone] | – | -89±13% | – | -69±32% | 8.91 | 40.4 ± 8.45 | 7.39 ± 7.14 | –
19 | O=C=Nc1cccc(C(F)(F)F)c1 [1-Isocyanato-3-(trifluoromethyl)benzene] | -108% | -119±7% | – | -107±13% | 6.31 | 11.5 ± 3.69 | 3.28 ± 1.13 | –
20 | NNc1nc(-c2ccc([N+](=O)[O-])cc2)cs1 [2-Hydrazino-4-(4-nitrophenyl) thiazole] | – | – | – | – | – | – | – | I-ADP, % of control (O2 consumption rate) ([3]; 20 µM): 103 (50.6) % of control; I-sub, % of control (O2 consumption rate) ([3]; 20 µM): 119 (19.1) % of control; II-ADP, % of control (O2 consumption rate) ([3]; 20 µM): 98 (76.1) % of control; II-sub, % of control (O2 consumption rate) ([3]; 20 µM): 99 (30.4) % of control; I-ADP, % of control (O2 consumption rate) ([3]; 100 µM): 61 (32.3) % of control; I-sub, % of control (O2 consumption rate) ([3]; 100 µM): 159 (21.4) % of control; II-ADP, % of control (O2 consumption rate) ([3]; 100 µM): 114 (77.1) % of control; II-sub, % of control (O2 consumption rate) ([3]; 100 µM): 153 (33.1) % of control; Potential Mechanism ([3]; mitochondrial respiration in isolated rat liver mitochondria, Clark type oxygen electrode, over tested concentrations): Uncoupler + inhibitor
21 | CCCCCCCCCCCCCC[P+](CCCCCC)(CCCCCC)CCCCCC.F[P-](F)(F)(F)(F)F [Trihexyltetradecylphosphonium hexafluorophosphate] | -91% | – | inactive | inactive | 1.12 | – | – | –
22 | CCCCCCCCCCCCn1cc[n+](C)c1.F[P-](F)(F)(F)(F)F | -119% | – | – | -111±27% | 5.01 | 8.81 ± 2.46 | – | –
23 | CCCCCCCC[n+]1ccn(C)c1.F[P-](F)(F)(F)(F)F [1-Methyl-3-octylimidazolium hexafluorophosphate] | -77% | – | – | -86±43% | 25.1 | 39.8 | – | –
24 | Cc1ccc2c(c1)C(=O)c1ccccc1C2=O [Compound 2-Methylanthraquinone] | – | -77±13% | – | -36±2% | – | – | 6.33 ± 1.15 | IC50 (HepG2 cells [4]): 11.2 µM; Emax (HepG2 cells [4]): 51%; IC50 (rat primary hepatocytes; Rattus norvegicus, Hepatocyte): 5.97 ± 0.49 µM
25 | C#C[C@]1(O)CC[C@H]2[C@@H]3CCC4=CCCC[C@@H]4[C@H]3CC[C@@]21C [Lynestrenol] | – | -104±10% | inactive | inactive | – | – | – | IC50 (HepG2 cells [4]): 7.4 µM; Emax (HepG2 cells [4]): 55%; IC50 (HepG2 cells [2]; [7]): 16.6 ± 2.15 µM
26 | ON=C1C=CC(=NO)C=C1 [p-Benzoquinone dioxime] | – | -71±6% | inactive | inactive | – | – | – | IC50 (HepG2 cells [4]): 25.1 µM; Emax (HepG2 cells [4]): 58%; IC50 (HepG2 cells [2]; [7]): 43.3 ± 14.9 µM
27 | CC(C)(C)C1=CC(=O)C=C(C(C)(C)C)C1=O | – | -73±22% | inactive | inactive | – | – | 18.6 ± 12.4 | IC50 (HepG2 cells [4]): 39.8 µM; Emax (HepG2 cells [4]): 80%
28 | Oc1ccc(Cl)c2cccnc12 [Cloxyquin] | – | -58±10% | inactive | inactive | – | – | 16.8 ± 5.94 | IC50 (HepG2 cells [4]): 15.5 µM; Emax (HepG2 cells [4]): 79%
29 | Oc1cccc(Nc2ccccc2)c1 [Compound 3-Hydroxy-N-phenylaniline] | – | -110±13% | inactive | inactive | – | – | 28.5 ± 6.04 | IC50 (HepG2 cells [4]): 35.5 µM; Emax (HepG2 cells [4]): 110%
